Assays:
[1] = molecular target: BcPyrR ([Bacillus] caldolyticus, UniProt P41007); assay: SEC-MALS; type: binding; conditions: 50 mM Tris pH 7.5, 150 mM NaCl, 1 mM DTT, room temperature; allosteric
[2] = molecular target: BsPyrR (Bacillus subtilis, UniProt P39765); assay: SEC-MALS; type: binding; conditions: 50 mM Tris pH 7.5, 150 mM NaCl, 1 mM DTT, room temperature; allosteric
Chain of BsPyrR (P39765 whole entry): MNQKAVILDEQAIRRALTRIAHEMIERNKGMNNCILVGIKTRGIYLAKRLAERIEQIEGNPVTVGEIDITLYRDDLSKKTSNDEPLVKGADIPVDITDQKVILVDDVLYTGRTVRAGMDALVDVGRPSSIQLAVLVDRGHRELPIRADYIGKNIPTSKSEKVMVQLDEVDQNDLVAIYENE

Chain of BcPyrR (P41007 whole entry): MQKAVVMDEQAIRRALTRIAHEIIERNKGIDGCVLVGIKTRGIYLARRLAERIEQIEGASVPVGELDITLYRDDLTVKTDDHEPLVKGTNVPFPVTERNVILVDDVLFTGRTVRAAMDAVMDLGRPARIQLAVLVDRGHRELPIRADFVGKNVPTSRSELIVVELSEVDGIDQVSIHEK

SMILES	SEC-MALS (oligomeric state shift) [1]	SEC-MALS (oligomeric state shift) [2]
Nc1nc2c(ncn2[C@@H]2O[C@H](COP(=O)(O)O)[C@@H](O)[C@H]2O)c(=O)[nH]1 [GMP]	We analysed the oligomeric state of BsPyrR and BcPyrR by SEC-MALS upon addition of allosteric ligands	
O=c1ccn([C@@H]2O[C@H](COP(=O)(O)O)[C@@H](O)[C@H]2O)c(=O)[nH]1 [UMP]	both UMP and GMP stabilize the tetrameric state of PyrR	both UMP and GMP stabilize the tetrameric state of PyrR

Source: publication PMC4337988 (Science (New York, N.Y.), 2014)
